Experimental data taken from patent US8124793B2, “Derivatives of ethylene methanedisulfonate as cancer chemotherapeutic agents” (priority 2007, dated 2012).

Tests used:
Assay type in all cases: cell-based
OVCAR-4 = experiment: NCI screen, growth of human tumor cells: Ovarian Cancer OVCAR-4; details: OVCAR-4 (Ovarian Cancer), 10^−4 molar
Procedure, shortened: (§1)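 At least 60 data points describe each compound tested by NCI. Cancer type, molar concentration in the screen and percent growth make up the recorded data.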

HOP-92 = experiment: NCI screen, growth of human tumor cells: Non-Small Cell Lung HOP-92; details: HOP-92, 10^−4 molar
Procedure, shortened: as §1

A498 = experiment: NCI screen, growth of human tumor cells: Renal Cancer A498; details: A498, 10^−4 molar
DMS273 = experiment: NCI screen, growth of human tumor cells: Small Cell Lung Cancer DMS273; details: 10^−4 molar
Experimental: (§2) The compounds listed in Section II are arranged by their NSC number followed by the percent of growth of human tumor cells when the compound is administrated at 10^−4 molar concentration.
(§3) In the NCI screening process, each compound was tested and described by a minimum of 60 data points. The test data include, but are not limited to the type of cancer, the molar concentration used in the screen, and the percent growth of the cancer. In some cases, NMR and elemental analysis were used for structural assignment.

LOXIMVI = experiment: NCI screen, growth of human tumor cells: Melanoma LOXIMVI; details: LOXIMVI, 10^−4 molar
Procedure, shortened: as §1

SN12C = experiment: NCI screen, growth of human tumor cells: Renal Cancer SN12C; details: SN12C (Renal Cancer), 10^−4 molar
Procedure, shortened: as §1

COLO205 = experiment: NCI screen, growth of human tumor cells: Colon Cancer COLO205; details: COLO205, 10^−4 molar
Procedure, shortened: as §1

CCRF-CEM = experiment: NCI screen, growth of human tumor cells: Leukemia CCRF-CEM; details: CCRF-CEM
Procedure, shortened: as §1

TK-10 = experiment: NCI screen, growth of human tumor cells: Renal Cancer TK-10; details: TK-10 (Renal Cancer), 10^−4 molar
Experimental: as §3

EKVX = experiment: NCI screen, growth of human tumor cells: Non-Small Cell Lung EKVX; details: EKVX (Non-Small Cell Lung), 10^−4 molar
Procedure, shortened: as §1

LXFL529 = experiment: NCI screen, growth of human tumor cells: Non-Small Cell Lung Cancer LXFL529
HCC-2998 = experiment: NCI screen, growth of human tumor cells: HCC-2998 (listed under Non-Small Cell Lung); details: HCC-2998, 10^−4 molar
Procedure, shortened: as §1

SF-539 = experiment: NCI screen, growth of human tumor cells: CNS Cancer SF-539; details: SF-539 (CNS Cancer), 10^−4 molar
Procedure, shortened: as §1

SR = experiment: NCI screen, growth of human tumor cells: Leukemia SR; details: SR
Procedure, shortened: as §1

MALME-3M = experiment: NCI screen, growth of human tumor cells: Melanoma MALME-3M; details: MALME-3M, 10^−4 molar
Procedure, shortened: as §1

HOP-62 = experiment: NCI screen, growth of human tumor cells: Non-Small Cell Lung HOP-62; details: HOP-62, 10^−4 molar
Procedure, shortened: as §1

K562 = experiment: NCI screen, growth of human tumor cells: Leukemia K562; details: K562 (Leukemia), 10^−4 molar
Procedure, shortened: as §1

HT29 = experiment: NCI screen, growth of human tumor cells: Colon Cancer HT29; details: HT29 (Colon Cancer), 10^−4 molar
Procedure, shortened: as §1

SF-295 = experiment: NCI screen, growth of human tumor cells: CNS Cancer SF-295; details: SF-295 (CNS Cancer), 10^−4 molar
Procedure, shortened: as §1

HCT-116 = experiment: NCI screen, growth of human tumor cells: Colon Cancer HCT-116; details: HCT-116, 10^−4 molar
Procedure, shortened: as §1

CAKI-1 = experiment: NCI screen, growth of human tumor cells: Renal Cancer CAKI-1; details: CAKI-1, 10^−4 molar
Procedure, shortened: as §1

RPMI-8226 = experiment: NCI screen, growth of human tumor cells: Leukemia RPMI-8226
Procedure, shortened: as §1

UO-31 = experiment: NCI screen, growth of human tumor cells: Renal Cancer UO-31; details: UO-31, 10^−4 molar
Procedure, shortened: as §1

UACC-62 = experiment: NCI screen, growth of human tumor cells: Melanoma UACC-62; details: UACC-62, 10^−4 molar
Procedure, shortened: as §1

DMS114 = experiment: NCI screen, growth of human tumor cells: Small Cell Lung Cancer DMS114; details: 10^−4 molar
Experimental: as §2, §3

SK-OV-3 = experiment: NCI screen, growth of human tumor cells: Ovarian Cancer SK-OV-3; details: SK-OV-3 (Ovarian Cancer), 10^−4 molar
Procedure, shortened: as §1

SW620 = experiment: NCI screen, growth of human tumor cells: Colon Cancer SW620; details: SW620, 10^−4 molar
Procedure, shortened: as §1

NCI-H23 = experiment: NCI screen, growth of human tumor cells: Non-Small Cell Lung NCI-H23
Procedure, shortened: as §1

XF 498 = experiment: NCI screen, growth of human tumor cells: CNS Cancer XF 498; details: XF 498 (CNS Cancer), 10^−4 molar
Experimental: as §2, §3

NCI-H522 = experiment: NCI screen, growth of human tumor cells: Non-Small Cell Lung NCI-H522; details: NCI-H522 (Non-Small Cell Lung), 10^−4 molar
Procedure, shortened: as §1

KM12 = experiment: NCI screen, growth of human tumor cells: Colon Cancer KM12; details: KM12 (Colon Cancer), 10^−4 molar
Procedure, shortened: as §1

SF-268 = experiment: NCI screen, growth of human tumor cells: CNS Cancer SF-268; details: SF-268 (CNS Cancer), 10^−4 molar
Procedure, shortened: as §1

HL-60 (TB) = experiment: NCI screen, growth of human tumor cells: Leukemia HL-60 (TB); details: HL-60 (TB) (Leukemia), 10^−4 molar
Experimental: as §3

RXF-631 = experiment: NCI screen, growth of human tumor cells: Renal Cancer RXF-631; details: RXF-631 (Renal Cancer), 10^−4 molar
Experimental: as §2, §3

SK-MEL-5 = experiment: NCI screen, growth of human tumor cells: Melanoma SK-MEL-5; details: SK-MEL-5, 10^−4 molar
Procedure, shortened: as §1

OVCAR-3 = experiment: NCI screen, growth of human tumor cells: Ovarian Cancer OVCAR-3; details: OVCAR-3 (Ovarian Cancer), 10^−4 molar
Procedure, shortened: as §1

UACC-257 = experiment: NCI screen, growth of human tumor cells: Melanoma UACC-257; details: UACC-257 (Melanoma), 10^−4 molar
Procedure, shortened: as §1

SNB-78 = experiment: NCI screen, growth of human tumor cells: CNS Cancer SNB-78; details: SNB-78 (CNS Cancer), 10^−4 molar
Experimental: as §2, §3

IGROVI = experiment: NCI screen, growth of human tumor cells: Ovarian Cancer IGROVI; details: IGROVI (Ovarian Cancer), 10^−4 molar
Procedure, shortened: as §1

NCI-H226 = experiment: NCI screen, growth of human tumor cells: Non-Small Cell Lung NCI-H226; details: NCI-H226, 10^−4 molar
Procedure, shortened: as §1

MOLT-4 = experiment: NCI screen, growth of human tumor cells: Leukemia MOLT-4; details: MOLT-4 (Leukemia), 10^−4 molar
Procedure, shortened: as §1

NCI-H322M = experiment: NCI screen, growth of human tumor cells: Non-Small Cell Lung NCI-H322M; details: NCI-H322M (Non-Small Cell Lung), 10^−4 molar
Procedure, shortened: as §1

OVCAR-8 = experiment: NCI screen, growth of human tumor cells: Ovarian Cancer OVCAR-8; details: OVCAR-8 (Ovarian Cancer), 10^−4 molar
Procedure, shortened: as §1

SK-MEL-28 = experiment: NCI screen, growth of human tumor cells: Melanoma SK-MEL-28; details: SK-MEL-28 (Melanoma), 10^−4 molar
Procedure, shortened: as §1

SK-MEL-2 = experiment: NCI screen, growth of human tumor cells: Melanoma SK-MEL-2; details: SK-MEL-2, 10^−4 molar
Procedure, shortened: as §1

SNB-75 = experiment: NCI screen, growth of human tumor cells: CNS Cancer SNB-75; details: SNB-75 (CNS Cancer), 10^−4 molar
Procedure, shortened: as §1

786-0 = experiment: NCI screen, growth of human tumor cells: Renal Cancer 786-0; details: 786-0, 10^−4 molar
Procedure, shortened: as §1

AS49/ATCC = experiment: NCI screen, growth of human tumor cells: Non-Small Cell Lung AS49/ATCC; details: AS49/ATCC (Non-Small Cell Lung), 10^−4 molar
Procedure, shortened: as §1

## O=S1(=O)OCCOS(=O)(=O)C1(I)I [NSC 648308, ethylene diiodomethanedisulfonate]
OVCAR-4
  percent of growth of human tumor cells: −39%
HOP-92
  % Growth: −78%
A498
  % Growth: −100%
DMS273
  percent of growth of human tumor cells: −45%
LOXIMVI
  % Growth: −93%
SN12C
  percent of growth of human tumor cells: −61%
COLO205
  % Growth: −61%
CCRF-CEM; 10^−4 molar
  % Growth: −44%
CCRF-CEM; 10^−5 molar
  % Growth: 55%
TK-10
  percent of growth of human tumor cells: −19%
EKVX
  percent of growth of human tumor cells: −35%
LXFL529; LXFL529, 10^−4 molar
  % Growth: −72%
LXFL529; LXFL529, 10^−5 molar
  % Growth: 55%
HCC-2998
  % Growth: −99%
SF-539
  percent of growth of human tumor cells: −25%
SR; 10^−4 molar
  % Growth: −37%
SR; 10^−5 molar
  % Growth: 48%
MALME-3M
  % Growth: −80%
HOP-62
  % Growth: −69%
K562
  percent of growth of human tumor cells: −16%
HT29
  percent of growth of human tumor cells: −18%
SF-295
  percent of growth of human tumor cells: −4%
HCT-116
  % Growth: −100%
CAKI-1
  % Growth: −71%
RPMI-8226; RPMI-8226, 10^−4 molar
  % Growth: −37%
RPMI-8226; RPMI-8226, 10^−5 molar
  % Growth: 48%
UO-31
  % Growth: −95%
UACC-62
  % Growth: −82%
DMS114
  percent of growth of human tumor cells: −46%
SK-OV-3
  percent of growth of human tumor cells: −49%
SW620
  % Growth: −55%
NCI-H23; NCI-H23, 10^−4 molar
  % Growth: −70%
NCI-H23; NCI-H23, 10^−5 molar
  % Growth: 56%
XF 498
  percent of growth of human tumor cells: −67%
NCI-H522
  percent of growth of human tumor cells: −45%
KM12
  percent of growth of human tumor cells: −58%
SF-268
  percent of growth of human tumor cells: −11%
HL-60 (TB)
  percent of growth of human tumor cells: −16%
RXF-631
  percent of growth of human tumor cells: −44%
SK-MEL-5
  % Growth: −91%
OVCAR-3
  percent of growth of human tumor cells: −14%
UACC-257
  percent of growth of human tumor cells: −54%
SNB-78
  percent of growth of human tumor cells: −6%
IGROVI
  percent of growth of human tumor cells: −24%
NCI-H226
  % Growth: −91%
MOLT-4
  percent of growth of human tumor cells: −22%
NCI-H322M
  percent of growth of human tumor cells: −45%
OVCAR-8
  percent of growth of human tumor cells: −25%
SK-MEL-28
  percent of growth of human tumor cells: −29%
SK-MEL-2
  % Growth: −80%
SNB-75
  percent of growth of human tumor cells: −36%
786-0
  % Growth: −95%
AS49/ATCC
  percent of growth of human tumor cells: −17%
